Measured values as given in ChEMBL document CHEMBL1201862, “PubChem BioAssay data set” (2004).
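Tested at 5 concentrations; 48 h exposure; 96-well plates; endpoints linearly interpolated, else capped at highest concentration. Abbreviation: GI50, concentration required for 50% inhibition of growth.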 Calls of active or inactive are those of the source. No stated cut-off is given here; in the data, active = GI50 up to about 1.1 µM and inactive = higher.

Columns and labels:
Test in all cases: DTP human tumour cell line panel, 48 h
COLO 205 = test system: COLO 205
DU-145 = test system: DU-145
786-0 = test system: 786-0
UACC-62 = test system: UACC-62
NCI-H226 = test system: NCI-H226
K562 = test system: K562
MDA-MB-231 = test system: MDA-MB-231
HCT-116 = test system: HCT-116
UO-31 = test system: UO-31
SK-OV-3 = test system: SK-OV-3
OVCAR-4 = test system: OVCAR-4
T47D = test system: T47D
SF-539 = test system: SF-539
MOLT-4 = test system: MOLT-4
TK-10 = test system: TK-10
SK-MEL-5 = test system: SK-MEL-5
SF-268 = test system: SF-268
HL-60 = test system: HL-60
CAKI-1 = test system: CAKI-1
LOX IMVI = test system: LOX IMVI
CCRF-CEM = test system: CCRF-CEM
PC-3 = test system: PC-3
M14 = test system: M14
SNB-75 = test system: SNB-75
RXF 393 = test system: RXF 393
A549 = test system: A549
RPMI-8226 = test system: RPMI-8226
NCI/ADR-RES = test system: NCI/ADR-RES
IGROV-1 = test system: IGROV-1
SF-295 = test system: SF-295
OVCAR-3 = test system: OVCAR-3
A498 = test system: A498
BT-549 = test system: BT-549
HOP-92 = test system: HOP-92
NCI-H522 = test system: NCI-H522
Malme-3M = test system: Malme-3M
HOP-62 = test system: HOP-62
MDA-MB-435 = test system: MDA-MB-435
MDA-N = test system: MDA-N
OVCAR-5 = test system: OVCAR-5
NCI-H460 = test system: NCI-H460
U-251 = test system: U-251
ACHN = test system: ACHN
Hs-578T = test system: Hs-578T
SW-620 = test system: SW-620
NCI-H23 = test system: NCI-H23
EKVX = test system: EKVX
SNB-19 = test system: SNB-19
KM12 = test system: KM12
HT-29 = test system: HT-29
UACC-257 = test system: UACC-257
SN12C = test system: SN12C
OVCAR-8 = test system: OVCAR-8
MCF7 = test system: MCF7
HCT-15 = test system: HCT-15

SMILES: CSc1nnc(SC)nn1
- GI50 (COLO 205): 18.7 µM (inactive)
- GI50 (DU-145): 20.4 µM (inactive)
- GI50 (786-0): 13.8 µM (inactive)
- GI50 (UACC-62): 18.2 µM (inactive)
- GI50 (NCI-H226): 32.4 µM (inactive)
- GI50 (K562): 8.04 µM (inactive)
- GI50 (MDA-MB-231): 18.2 µM (inactive)
- GI50 (HCT-116): 11 µM (inactive)
- GI50 (UO-31): 15.5 µM (inactive)
- GI50 (SK-OV-3): 21.4 µM (inactive)
- GI50 (OVCAR-4): 18.5 µM (inactive)
- GI50 (T47D): 2.76 µM (inactive)
- GI50 (SF-539): 18.2 µM (inactive)
- GI50 (MOLT-4): 0.438 µM (active)
- GI50 (TK-10): 12.6 µM (inactive)
- GI50 (SK-MEL-5): 15.8 µM (inactive)
- GI50 (SF-268): 15.9 µM (inactive)
- GI50 (HL-60): 3.65 µM (inactive)
- GI50 (CAKI-1): 16.9 µM (inactive)
- GI50 (LOX IMVI): 19.6 µM (inactive)
- GI50 (CCRF-CEM): 1.81 µM (inactive)
- GI50 (PC-3): 18.5 µM (inactive)
- GI50 (M14): 15.5 µM (inactive)
- GI50 (SNB-75): 17.4 µM (inactive)
- GI50 (RXF 393): 16.7 µM (inactive)
- GI50 (A549): 20.9 µM (inactive)
- GI50 (RPMI-8226): 13.3 µM (inactive)
- GI50 (NCI/ADR-RES): 16.8 µM (inactive)
- GI50 (IGROV-1): 16.3 µM (inactive)
- GI50 (SF-295): 18.1 µM (inactive)
- GI50 (OVCAR-3): 16.2 µM (inactive)
- GI50 (A498): > 100 µM (inactive)
- GI50 (BT-549): 16 µM (inactive)
- GI50 (HOP-92): 3.84 µM (inactive)
- GI50 (NCI-H522): 16.4 µM (inactive)
- GI50 (Malme-3M): 13 µM (inactive)
- GI50 (HOP-62): 15.3 µM (inactive)
- GI50 (MDA-MB-435): 16.9 µM (inactive)
- GI50 (MDA-N): 16.1 µM (inactive)
- GI50 (OVCAR-5): 18.1 µM (inactive)
- GI50 (NCI-H460): 18.2 µM (inactive)
- GI50 (U-251): 20.6 µM (inactive)
- GI50 (ACHN): 16.8 µM (inactive)
- GI50 (Hs-578T): 27.2 µM (inactive)
- GI50 (SW-620): 17.2 µM (inactive)
- GI50 (NCI-H23): 20.8 µM (inactive)
- GI50 (EKVX): 16.6 µM (inactive)
- GI50 (SNB-19): 20.7 µM (inactive)
- GI50 (KM12): 15.3 µM (inactive)
- GI50 (HT-29): 18.9 µM (inactive)
- GI50 (UACC-257): 16.6 µM (inactive)
- GI50 (SN12C): 21.1 µM (inactive)
- GI50 (OVCAR-8): 18.6 µM (inactive)
- GI50 (MCF7): 17 µM (inactive)
- GI50 (HCT-15): 19.2 µM
